Key:
CXCR4 = target: T1, CXCR4 (Homo sapiens, UniProt P61073); test: Conventional cell migration assay, SDF-1α dose response (determining inhibitory concentration); assay type: cell-based; settings: CXCR4-bearing activated lymphocytes, 150 minutes
T1 construct: endogenous in cells
Experimental: To obtain a dose response curve for activated lymphocytes expressing cell surface CXCR4, a conventional cell migration assay was used (Bacon et al., 1988; Penfold et al., 1999). The activated lymphocytes were prepared by culturing lymphocytes in the presence of interleukin-2 (IL-2) and phytohemeagglutinin (PHA). To isolate peripheral blood lymphocytes (i.e., a thin layer of white blood cells called the buffy coat), blood samples from the Stanford blood center were centrifuged for 10 minutes at 1200 rpm leaving a concentrated fraction containing predominantly white blood cellular fraction. Next, peripheral blood mononuclear cells (PBMC) were prepared by the standard Ficoll-Pague (Amersham Biosciences) gradient centrifugation method. Following the centrifugation, PBMC were removed and resuspended in MACS (Dulbecco's Phosphate Buffered Saline, DPBS; 1% Bovine Serum Albumin, BSA) buffer. After removal of the PMBCs, the monocytes were separated by a CD14 positive selection column mounted on an AutoMac (Multenyi Biotech). […]
The CXCR4 ligand stromal-derived factor (SDF-1α) was prepared in a concentration series (0.1 nM to […]) by serial dilution in cell migration buffer. […] The cells that migrated to the lower chamber were quantified by the CyQuant assay (Molecular Probes; Eugene, Oreg.), a fluorescent dye method that measures nucleic acid content. […]

CCR2 = target: T2, CCR2 (Homo sapiens, UniProt P41597); test: Conventional cell migration assay, MCP-1 dose response in THP-1 cells; assay type: cell-based; settings: 90 minutes, FIG. 10
T2 construct: THP-1 cells expressing cell surface CCR1 and CCR2; host or cells: THP-1 (human monocytic)
T2 sequence (P41597 1-360 isoform P41597-2): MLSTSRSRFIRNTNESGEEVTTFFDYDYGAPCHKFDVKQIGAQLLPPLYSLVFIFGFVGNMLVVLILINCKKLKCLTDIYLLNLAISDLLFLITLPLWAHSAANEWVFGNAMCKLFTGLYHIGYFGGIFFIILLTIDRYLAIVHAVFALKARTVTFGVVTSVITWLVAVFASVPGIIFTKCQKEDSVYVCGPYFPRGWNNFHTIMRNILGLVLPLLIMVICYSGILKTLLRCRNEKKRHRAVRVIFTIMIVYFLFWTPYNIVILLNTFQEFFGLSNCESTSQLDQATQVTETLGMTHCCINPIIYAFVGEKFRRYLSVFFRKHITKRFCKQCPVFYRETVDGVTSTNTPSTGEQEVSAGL
Experimental: (§1) To obtain a dose response curve for THP-1 cells expressing cell surface CCR1 and CCR2, a conventional cell migration assay was used (Bacon et al., 1988; Penfold et al., 1999). Cells were harvested by centrifugation and then resuspended in cell migration buffer (Hank's balanced salt solution (HBSS)/0.1% bovine serum albumin (BSA)) at 0.1×10^6 cells per well. The CCR1 and CCR2 ligands MIP-1α and MCP-1, respectively, were prepared in the concentration series (10 nM to 10 μM) by serial dilution in cell migration buffer. At low concentrations, MIP-1α and MCP-1 activate cell migration of CCR1 and CCR2 bearing activated cells, respectively.
(§2) MIP-1α and MCP-1 were loaded in the bottom chamber of a ChemoTx® cell migration apparatus (5 μm pore polycarbonate polyvinylpyrrolidone-coated filters (Neuroprobe; Gaithersburg, Md.); 29 μl/well) and 20 μl of cell suspension (100K cell per well) was placed in the upper chamber. The cells were incubated at 37° C. for 90 minutes. The assay was terminated by removing the cells from the upper chamber and membrane surface using a rubber scraper. The cells that migrated to the lower chamber were quantified by CyQuant assay (Molecular Probes; Eugene, Oreg.), a fluorescent dye method that measures nucleic acid content. […]

THP-1 cells [1] = test: Effect of full RAM concentration of MCP-1 on MIP-1α-induced migration; assay type: cell-based, human; settings: 100 nM MCP-1, THP-1 cells, FIG. 11B
Experimental: An effect of 100 nM of MCP-1 on MIP-1α was studied by comparing migration levels of THP-1 cells as activated by MIP-1α with THP-1 cell migration levels as activated by incubation with MIP-1α and 100 nM MCP-1.
(§3) 100 nM MCP-1 with MIP-1α at various concentrations were loaded in the bottom chamber of a ChemoTx® cell migration apparatus (5 μm pore polycarbonate polyvinylpyrrolidone-coated filters (Neuroprobe; Gaithersburg, Md.); 29 μl/well) and 20 μl of cell suspension (100K cell per well) was placed in the upper chamber. The cells were incubated at 37° C. for 90 minutes. The assay was terminated by removing the cells from the upper chamber and membrane surface using a rubber scraper. The cells that migrated to the lower chamber were quantified by CyQuant assay (Molecular Probes; Eugene, Oreg.), a fluorescent dye method that measures nucleic acid content.

CCR1 = target: T3, CCR1 (Homo sapiens, UniProt P32246); test: Conventional cell migration assay, MIP-1α dose response in THP-1 cells; assay type: cell-based; settings: 90 minutes, FIG. 10
T3 construct: THP-1 cells expressing cell surface CCR1 and CCR2; host or cells: THP-1 (human monocytic)
T3 sequence (P32246 1-355): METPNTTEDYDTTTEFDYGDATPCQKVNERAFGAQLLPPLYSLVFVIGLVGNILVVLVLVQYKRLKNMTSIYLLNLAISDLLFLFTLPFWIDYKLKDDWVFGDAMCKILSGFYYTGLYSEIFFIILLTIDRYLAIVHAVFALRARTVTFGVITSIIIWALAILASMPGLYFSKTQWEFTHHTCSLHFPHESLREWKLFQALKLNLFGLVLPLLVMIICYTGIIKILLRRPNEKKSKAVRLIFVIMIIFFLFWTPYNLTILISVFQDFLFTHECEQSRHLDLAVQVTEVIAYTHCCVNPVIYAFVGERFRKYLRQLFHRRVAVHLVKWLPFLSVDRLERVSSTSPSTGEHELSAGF
Experimental: as §1, §2

THP-1 cells [2] = test: Effect of full RAM concentration of MIP-1α on MCP-1-induced migration; assay type: cell-based, human; settings: 100 nM MIP-1α, FIG. 11A
Experimental: An effect of 100 nM of MIP-1α on MCP-1 was studied by comparing migration levels of THP-1 cells as activated by MCP-1 with THP-1 cell migration levels as activated by incubation with MCP-1 and 100 nM MIP-1α.
as §3, with “nM MIP-1α with” for “nM”, “MCP-1” for “MCP-1 with MIP-1α”

T1 sequence (P61073 whole entry): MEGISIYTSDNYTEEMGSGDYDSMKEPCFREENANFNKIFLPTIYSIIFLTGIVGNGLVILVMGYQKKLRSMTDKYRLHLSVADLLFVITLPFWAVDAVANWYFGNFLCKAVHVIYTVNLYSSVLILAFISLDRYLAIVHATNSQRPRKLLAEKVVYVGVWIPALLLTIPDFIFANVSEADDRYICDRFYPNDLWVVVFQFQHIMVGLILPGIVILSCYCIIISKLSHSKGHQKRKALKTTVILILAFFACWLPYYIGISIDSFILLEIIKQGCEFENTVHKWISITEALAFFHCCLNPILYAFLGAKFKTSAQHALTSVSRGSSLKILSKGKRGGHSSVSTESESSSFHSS

## SDF-1α
CXCR4
  concentration determined to be completely inhibitory for cell migration: 1 µM

## MCP-1: CCR2 ligand, chemokine purchased from PeproTech
CCR2
  concentration determined to be completely inhibitory for cell migration: 150 nM
THP-1 cells [1]
  effect on MIP-1α-induced cell migration: no significant effect

## MIP-1α: CCR1 ligand, chemokine purchased from PeproTech
CCR1
  concentration determined to be completely inhibitory for cell migration: 150 nM
THP-1 cells [2]
  effect on MCP-1-induced cell migration: no significant effect
